The values below come from patent US20260375146A1, “COMBINATION OF COMPOUNDS FOR DEVELOPING IN VITRO MODELS OF THE BLOOD-BRAIN BARRIER” (HUN-REN SZEGEDI BIOLÓGIAI KUTATÓKÖZPONT, priority 2023, published 2026).

Read-outs that look alike come from different tables or passages of the source.

Series [1] relates to EC-PC co-culture BBB model. Nature of the series: Penetration of small molecule drugs across the BBB co-culture model. Particulars: 1 μM drug; cAMP+Ro+LiCl+A83-01 vs control. Here is the method:
Assembly, maintenance and treatment of co-cultures were performed as described above. […] In B-A direction, samples from both compartments were collected at 60 min. In A-B direction, inserts were transferred to a new well with fresh buffer at 30 min, then at the end of the assay samples were collected from the donor (0-60 min) and acceptor compartments (0-30 min, 30-60 min). […] Drug concentrations were determined by standard calibration curves.
where CA is the concentration measured in the acceptor compartment, VA is the volume of the acceptor compartment (1.5 mL) and CD is the treatment concentration in the donor compartment at a given timepoint. […] Papp was then calculated as: […]
where A is the surface area of the insert available for permeability (1.12 cm^2). Efflux ratio was calculated by dividing Papp values in B-A direction by Papp values in A-B direction.
where nA.30, nA.60 and nD.60 are the amounts of substance (pmol) in the accentor compartment at 30 and 60 min as well as the donor compartment at 60 min, respectively, and nT is the amount of substance (pmol) present at the treatment solution at 0 min. In vitro Kp,uu,brain was then calculated as: […]
where CT is the concentration of a drug in the treatment solution at 0 min, CD is the concentration in the donor compartment at 60 min and R is recovery. Calculation of Pearson r^2 and Spearman r coefficients using data referenced in the legend FIG. 5d was performed in GraphPad Prism software (version 5.0).

The subject of another series is central nervous system. Particulars: route of penetration across the BBB; cited from earlier work.
A further series deals with EC monolayers. Particulars: alone, especially with astrocyte-conditioned medium; cited from earlier work.
In series [2] the test system is human stem cell-derived ECs. The series can be described thus: Impedance-based measurement of barrier integrity, human ECs. The series is classed as cell-based. Here is the method: (§1) Real-time, label-free measurement of barrier integrity was performed in 96-well plates with integrated gold electrodes (E-plate 96: Agilent, cat #300600910) using an xCELLigence RTCA SP device (Agilent). Plates were coated with 0.2% gelatin (Sigma-Aldrich, cat #G2500) and the cell-free background was measured in culture medium for each well. Then, ECs were seeded in the plates at a density of 6×10^3 cells/well and grown until fully confluent, while receiving 50% PC-conditioned medium to acquire brain-like properties. […] For combinatorial treatments, the following concentrations were used: cAMP 250 µM, Ro […], Wnt-3a 300 ng/mL, Wnt-7a 300 ng/mL, LiCl 3 mM, RepSox 10 μM and A83-01 3 μM. For all further experiments on human ECs, combination of cAMP+Ro+LiCl+A83-01 treatment consisted of 250 μM cAMP+17.5 μM Ro+3 mM LiCl+3 μM A83-01. The readout of impedance measurements is cell index, a dimensionless parameter which correlates with the strength of cell-cell contacts and cell adhesion. Cell index was defined as Zn-Z0, where Zn is the impedance at time point n and Zo is the impedance of the cell-free background in each well. Cell index values were normalized to the last time point before treatment.

The test system of the next series is stem cell-derived ECs. The conditions noted are these: cited from earlier work.
Series [3] deals with Wnt/β-catenin signaling. The series can be described thus: Pharmacological inhibition of Wnt/β-catenin signaling, barrier integrity by impedance. The format is cell-based, human. The conditions noted are these: for interference with basal barrier integrity: no combination treatment, titrated inhibitor; for reduction of the effect of cAMP+Ro+LiCl+A83-01 on barrier integrity (impedance): role: inhibitor, ICG-001 5 μM or XAV 939 1 μM, co-treatment 48 h. Here is the method: as §1
Wnt/β-catenin signaling was blocked at two different points using inhibitors ICG-001 (MedChemExpress, cat #HY-14428) and XAV 939 (MedChemExpress, cat #HY-15147). For the measurement of barrier integrity by impedance. ECs were cultured as described above. Confluent monolayers were treated with ICG-001 […] for 48 h at 37 °C, and impedance was measured at 10 kHz every 5 min using the xCELLigence RTCA SP device (Agilent) as described above. […] For the measurement of TEER and tracer permeability, EC-PC co-cultures were assembled and maintained as described above. On day 4, the luminal (blood) side of the model was incubated with the combination of cAMP+Ro+LiC+A83-01 or control medium supplemented with either 5 μM ICG-001 or 1 μM XAV 939 for 48 h at 37 °C. TEER and tracer permeability were then measured and calculated as described above.

The test system of series [4] is Wnt/β-catenin signaling. Particulars: role: inhibitor; cited from earlier work.
The subject of series [5] is human stem cell-derived brain-like ECs. Nature of the series: Albumin internalization in ECs. The format is cell-based. The conditions noted are these: MβCD 1 mM, 1 h. Here is the method: ECs were cultured in 50% PC-conditioned medium on 35 mm glass bottom Petri dishes (Greiner Bio-One, cat #627860) coated with collagen IV (Sigma-Aldrich, cat #C5533, 100 ng/mL) and fibronectin (Sigma-Aldrich, cat #F1141, 25 μg/mL) at a seeding density of 5×10^4 cells/cm^2. […] After that, culture medium was removed and cells were incubated with Texas Red-conjugated BSA (TR-albumin; Invitrogen, cat #A23017, 5 μg/mL) dissolved in control medium for 2 h at 37 °C. For the final 20 minutes of incubation, Hoechst 33342 (Thermo Fisher, cat #H1399,2 μg/mL) was added to cells to counterstain nuclei. Cultures were washed twice in Ringer-HEPES supplemented with 1% FBS and live-cell imaging was performed immediately in the same buffer using a Leica TCS SP5 AOBS confocal laser scanning microscope equipped with a HCX PL APO 63× oil (NA=1.4) objective with the same parameters as described above. After live-cell imaging, cells were fixed with 3% paraformaldehyde for 15 min at room temperature and immunostained for caveolin-1 exactly as described above. […] Finally, ECs were lysed with 1% Triton X 100 in Milli-Q water and the fluorescent signal of internalized TR-albumin was quantified with a Fluorolog 3 spectrofluorometer (Horiba Jobin Yvon) at 592 nm excitation and 612 nm emission wavelengths. Concentrations of internalized TR-albumin were calculated using a standard calibration curve. […]

Series [6] concerns Wnt/β-catenin signaling. Particulars: in vitro; cited from earlier work.
Series [7] concerns human endothelial cell and brain pericyte co-culture BBB model. The series can be described thus: Early experiment: cAMP alone or with PDE4 inhibitor, normalized cell index. The series is classed as cell-based. The conditions noted are these: PDE4 inhibitor together with cAMP; in particular within first 24 hours; data not shown.

Turning to `CC(C)NCC(O)COc1cccc2ccccc12` (stereo not shown) [Propranolol], in series [1], the “permeability (Papp), blood-to-brain (A-B), change on combination treatment” value (shortened to “permeability … change on combination treatment”) is given as “increased the permeability”. In the series with central nervous system, the BBB transport entry is listed as “Passive lipophilic”.

With `C=C[C@@]1(C)CC(=O)[C@]2(O)[C@@]3(C)[C@@H](O)CCC(C)(C)[C@@H]3[C@H](O)[C@H](OC(C)=O)[C@@]2(C)O1` [forskolin], the “resistance across EC monolayers” value in the series on EC monolayers is recorded as “increase resistance across EC monolayers”.

Regarding `COc1ccc2c(c1)c(CC(=O)O)c(C)n2C(=O)c1ccc(Cl)cc1` [Indomethacin], the BBB transport result with central nervous system was “Passive lipophilic”.

With `Cc1cccc(-c2nn(C(=S)Nc3ccccc3)cc2-c2ccnc3ccccc23)n1` [A83-01, 3-(6-Methyl-2-pyridinyl)-N-phenyl-4-(4-quinolinyl)-1H-pyrazole-1-carbothioamide], in [2], the “enhancement of the effect of cAMP+Ro on barrier integrity (impedance)” value is “did not enhance”. Further, the junctional tightness result with stem cell-derived ECs is given as “elevate junctional tightness”.

For `Oc1nc(-c2ccc(C(F)(F)F)cc2)nc2c1CSCC2` [XAV 939], in the series with Wnt/β-catenin signaling [3], the “interference with basal barrier integrity” value is reported as “do not interfere with basal barrier integrity” and the “reduction of the effect of cAMP+Ro+LiCl+A83-01 on barrier integrity (impedance)” value was “more potently reduced the effect of the combination of cAMP+Ro+LiCl+A83-01, almost to the level of cAMP+Ro treatment”. Also, in the series with Wnt/β-catenin signaling [4], the “point of inhibition of Wnt signaling” value is “blocks the pathway upstream of nuclear translocation”.

With `Nc1nnc(-c2cccc(Cl)c2Cl)c(N)n1` [Lamotrigine], in the series with central nervous system, the BBB transport result is “Passive lipophilic”.

Consider “methyl-β-cyclodextrin [methyl-p-cyclodextrin]”, for which the “inhibition of albumin internalization (lipid raft/caveolin-mediated endocytosis)” value in series [5] is given as “sensitive”.

Turning to Methotrexate, in series [1], the “efflux ratio, change on combination treatment” value (from here on “efflux ratio, change”) is given as “elevated”. In addition, the BBB transport result with central nervous system is “Efflux”.

Take `Nc1c2c(nc3ccccc13)CCCC2` [Tacrine]: the “permeability … change on combination treatment” value in series [1] was “increased the permeability”. Moreover, the BBB transport result in the series on central nervous system is recorded as “Influx”.

As for `[Cl-].[Li+]` [LiCl, lithium chloride], the “enhancement of the effect of cAMP+Ro on barrier integrity (impedance)” value in series [2] (added to cAMP+Ro) is listed as “did not enhance”. Moreover, the “induction of barrier properties” value with Wnt/β-catenin signaling [6] was “induce a subset of barrier properties”.

For `O=C1Nc2cc(Br)ccc2C1=C1Nc2ccccc2C1=NO` [6-BIO, 6-bromoindirubin-3-oxim], the “induction of barrier properties” value in the series with Wnt/β-catenin signaling [6] is given as “induce a subset of barrier properties”.

With `CN(C)C(=O)C(CCN1CCC(O)(c2ccc(Cl)cc2)CC1)(c1ccccc1)c1ccccc1` [Loperamide], in [1], the “efflux ratio, change” value is “elevated” and the “permeability … change on combination treatment” value is recorded as “lower permeability”. The BBB transport result in the series on central nervous system is “Passive hydrophilic, efflux”.

With `O=C1[C@H](Cc2ccc(O)cc2)N2C(=O)CCN(C(=O)NCc3ccccc3)[C@H]2CN1Cc1cccc2ccccc12` [ICG-001], in the series with Wnt/β-catenin signaling [3], the “interference with basal barrier integrity” value was “do not interfere with basal barrier integrity” and the “reduction of the effect of cAMP+Ro+LiCl+A83-01 on barrier integrity (impedance)” value is given as “moderately”. The “point of inhibition of Wnt signaling” value in the series with Wnt/β-catenin signaling [4] is listed as “specifically inhibits the β-catenin-CREB-binding protein (CBP) interaction in the nucleus”.

As for `O=C(O)c1ccccc1O` [Salicylic acid], the “permeability … change on combination treatment” value in series [1] was “lower permeability”. The BBB transport result with central nervous system was “Efflux, influx”.

Consider `CCCCOc1cc(CC2CNC(=O)N2)ccc1OC` (stereo not shown) [Ro 20-1724, 4-(3-Butoxy-4-methoxybenzyl)imidazolidin-2-one], for which the “barrier integrity as normalized cell index, further increase over cAMP alone” value in [7] is on record as “further increases barrier integrity”. Besides, the “resistance across EC monolayers” value in the series on EC monolayers is given as “increase resistance across EC monolayers”.

Consider `Cc1cccc(-c2[nH]ncc2-c2ccc3ncccc3n2)n1` [RepSox], for which the junctional tightness result in the series on stem cell-derived ECs (stem cell-derived ECs, via claudin-5) is recorded as “elevate junctional tightness”.

For the molecule `CC[C@]1(O)C[C@@H]2CN(CCc3c([nH]c4ccccc34)[C@@](C(=O)OC)(c3cc4c(cc3OC)N(C)[C@H]3[C@@](O)(C(=O)OC)[C@H](OC(C)=O)[C@]5(CC)C=CCN6CC[C@]43[C@@H]65)C2)C1` [Vinblastine], in series [1], the “efflux ratio, change” value was “trend” and the “permeability … change on combination treatment” value was “lower permeability”. In addition, the BBB transport entry with central nervous system is reported as “Efflux”.

For `Cc1c[nH]c(-c2cnc(NCCNc3ccc(C#N)cn3)nc2-c2ccc(Cl)cc2Cl)n1` [CHIR99021], in the series with Wnt/β-catenin signaling [6], the “induction of barrier properties” value is “induce a subset of barrier properties”.

B1: Wnt-3a: recombinant human Wnt-3a protein (protein, UniProt P56704 19-352, looked up)
Protein Wnt-3a: SYPIWWSLAVGPQYSSLGSQPILCASIPGLVPKQLRFCRNYVEIMPSVAEGIKIGIQECQHQFRGRRWNCTTVHDSLAIFGPVLDKATRESAFVHAIASAGVAFAVTRSCAEGTAAICGCSSRHQGSPGKGWKWGGCSEDIEFGGMVSREFADARENRPDARSAMNRHNNEAGRQAIASHMHLKCKCHGLSGSCEVKTCWWSQPDFRAIGDFLKDKYDSASEMVVEKHRESRGWVETLRPRYTYFKVPTERDLVYYEASPNFCEPNPETGSFGTRDRTCNVSSHGIDGCDLLCCGRGHNARAERRREKCRCVFHWCCYVSCQECTRVYDVHTCK
Consider B1, for which, in the series on Wnt/β-catenin signaling [6], the “induction of barrier properties” value is recorded as “induce a subset of barrier properties”.
